Measured values published in publication PMC11413503, “SCR‐7952, a highly selective MAT2A inhibitor, demonstrates synergistic antitumor activities in combination with the S‐adenosylmethionine‐competitive or the methylthioadenosine‐cooperative protein arginine methyltransferase 5 inhibitors in methylthioadenosine phosphorylase‐deleted tumors” (MedComm, 2024).

Experiments:
human UGT1A1 = human UGT1A1 (Homo sapiens, UniProt P22309); assay: UGT1A1 biochemical assay
HCT116 MTAP−/− cells = assay: Intracellular SAM inhibition assay; type: cell-based; settings: Homo sapiens, HCT-116; HCT116 MTAP−/− cells, 6 h treatment; read-out: IC50, cellular SAM levels
Protocol: MAT2A inhibition in the cellular environment was monitored by measurement of the abundance of its product SAM in HCT116 MTAP ^−/− cells. HCT116 MTAP ^−/− cells were plated in 96‐well cell culture plates at 50,000 cells per well and allowed to attach overnight at 37°C in 5% CO2. Compounds were added in a dose–response format to generate a 10‐point dose–response curve. Doses were started at a 10 µM top concentration with 1:5 serial dilution. After 6 h of incubation, the medium was removed and cells were extracted with 50% methanol containing 1 M acetic acid for SAM metabolite measurement by UPLC‐MS/MS.
The standard SAM solution was prepared in a surrogate matrix of 50% methanol containing 1 M acetic acid with a concentration range of 3–1000 ng/mL. The quality control sample was prepared in the same surrogate matrix. SAM‐d 3 was used as the internal standard (IS). A Waters UPLC system coupled with a SCIEX Triple Quad™ 6500^+ mass spectrometer […] was used to analyze the samples. Samples were separated on an ACQUITY UPLC® BEH amide column (2.1 × 50 mm, 1.7 µm). The mobile phase consisted of 5% acetonitrile containing 5 mM NH4OAc and 1% (v/v) formic acid (A) and 95% acetonitrile containing 5 mM NH4OAc and 1% (v/v) formic acid (B). […] SAM and SAM‐d 3 were detected with multiple‐reaction monitoring of a mass transition pair at m/z 399.2/250.2 and […], respectively.

COX1 = COX1 (Homo sapiens, UniProt P23219); assay: Mini-profiling panel, non-kinase enzyme; type: biochemical; settings: Non-Kinase Enzymes; read-out: COX1 Inhibitor IC50
ADORA2A = ADORA2A (Homo sapiens, UniProt P29274); assay: Mini-profiling panel, GPCR; type: cell-based; settings: GPCR Targets
ADORA2A, sequence (P29274 whole entry, species assumed): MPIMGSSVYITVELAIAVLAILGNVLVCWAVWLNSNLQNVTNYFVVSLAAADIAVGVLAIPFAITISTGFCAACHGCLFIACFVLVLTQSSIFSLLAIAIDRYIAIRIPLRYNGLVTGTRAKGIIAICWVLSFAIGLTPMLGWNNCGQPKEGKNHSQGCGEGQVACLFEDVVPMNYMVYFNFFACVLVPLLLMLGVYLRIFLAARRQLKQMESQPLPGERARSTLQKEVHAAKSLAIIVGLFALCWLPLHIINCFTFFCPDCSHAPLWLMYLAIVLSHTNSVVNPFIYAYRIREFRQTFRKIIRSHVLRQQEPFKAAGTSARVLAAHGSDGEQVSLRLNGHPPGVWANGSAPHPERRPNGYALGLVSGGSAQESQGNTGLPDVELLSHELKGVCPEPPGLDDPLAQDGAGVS

MAT2A protein expression = assay: Immunoblot of MAT2A protein expression; type: cell-based; settings: 96 h, HCT116 MTAP−/− and WT cells
MAT2A [1] = target: T1, MAT2A (Homo sapiens, UniProt P31153); assay: SPR binding, single-cycle kinetics
T1 construct: purchased Pharmaron 210405‐HWR‐20210429
T1 sequence (P31153 whole entry): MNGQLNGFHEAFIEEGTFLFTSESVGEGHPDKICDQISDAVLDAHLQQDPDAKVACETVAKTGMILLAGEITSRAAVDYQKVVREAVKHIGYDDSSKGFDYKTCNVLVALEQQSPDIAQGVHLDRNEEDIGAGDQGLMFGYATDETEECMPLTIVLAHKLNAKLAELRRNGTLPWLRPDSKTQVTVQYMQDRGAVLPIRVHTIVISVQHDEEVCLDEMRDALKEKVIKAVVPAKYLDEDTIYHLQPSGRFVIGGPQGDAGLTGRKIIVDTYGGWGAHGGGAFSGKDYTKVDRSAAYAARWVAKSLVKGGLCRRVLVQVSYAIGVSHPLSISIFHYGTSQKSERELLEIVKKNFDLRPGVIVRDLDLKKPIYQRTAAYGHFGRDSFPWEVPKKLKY
Protocol: SPR experiments were performed using a BIAcore 8K instrument (Cytiva) at 25°C. A series S sensor chip SA (Cytiva) was docked into the system in 20 mM Bicine‐Na, pH 7.5, 100 mM KCl, 5 mM MgCl2, 0.1 mM TCEP, 0.05% (w/w) Tween‐20, and 2% (v/v) DMSO. The MAT2A protein was captured by Penta‐anti‐His antibody, and the affinity of SCR‐7952 was tested over a suitable dose–response range (12.5–200 nM) by single‐cycle kinetics. The kinetic parameters of SCR‐7952 on MAT2A were fitted via a 1:1 binding model.

CCKAR = CCKAR (Homo sapiens, UniProt P32238); assay: Mini-profiling panel, GPCR; type: cell-based; settings: GPCR Targets
CCKAR, sequence (P32238 whole entry, species assumed): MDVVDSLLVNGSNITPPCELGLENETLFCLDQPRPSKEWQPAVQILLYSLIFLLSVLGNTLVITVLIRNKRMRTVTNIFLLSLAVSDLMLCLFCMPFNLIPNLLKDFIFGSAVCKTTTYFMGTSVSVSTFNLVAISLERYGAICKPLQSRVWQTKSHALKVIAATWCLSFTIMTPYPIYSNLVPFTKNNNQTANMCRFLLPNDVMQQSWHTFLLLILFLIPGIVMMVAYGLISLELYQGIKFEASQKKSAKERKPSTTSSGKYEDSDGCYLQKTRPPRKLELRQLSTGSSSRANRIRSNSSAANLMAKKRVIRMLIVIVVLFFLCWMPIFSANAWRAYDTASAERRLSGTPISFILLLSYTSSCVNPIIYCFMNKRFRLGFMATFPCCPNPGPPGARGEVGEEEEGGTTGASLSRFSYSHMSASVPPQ

DAT = DAT (Homo sapiens, UniProt Q01959); assay: Mini-profiling panel, transporter; type: cell-based
DAT, sequence (Q01959 whole entry, species assumed): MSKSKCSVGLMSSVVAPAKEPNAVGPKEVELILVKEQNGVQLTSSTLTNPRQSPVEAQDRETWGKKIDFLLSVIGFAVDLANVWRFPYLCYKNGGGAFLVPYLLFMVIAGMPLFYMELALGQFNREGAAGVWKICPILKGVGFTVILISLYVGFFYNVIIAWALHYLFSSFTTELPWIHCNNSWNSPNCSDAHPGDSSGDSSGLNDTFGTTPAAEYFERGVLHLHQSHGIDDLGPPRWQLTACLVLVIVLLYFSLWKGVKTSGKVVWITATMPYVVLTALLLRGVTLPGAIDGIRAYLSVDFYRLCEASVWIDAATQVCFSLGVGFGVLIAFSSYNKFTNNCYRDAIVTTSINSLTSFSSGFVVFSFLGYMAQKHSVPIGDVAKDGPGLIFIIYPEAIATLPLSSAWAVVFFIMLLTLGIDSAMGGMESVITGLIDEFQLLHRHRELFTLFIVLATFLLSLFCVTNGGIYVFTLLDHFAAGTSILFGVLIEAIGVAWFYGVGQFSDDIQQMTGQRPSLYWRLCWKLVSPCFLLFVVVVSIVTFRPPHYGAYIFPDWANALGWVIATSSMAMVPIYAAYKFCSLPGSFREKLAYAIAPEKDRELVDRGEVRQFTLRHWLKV
Protocol: (§1) Further insight into selectivity was evaluated in a functional panel of 47 representative targets closely related to human life activities, including G protein‐coupled receptors, transporters, ion channels, kinases, nuclear hormone receptor targets, and nonkinase enzymes (Table S3).

SERT = SERT (Homo sapiens, UniProt P31645); assay: Mini-profiling panel, transporter; type: cell-based
SERT, sequence (P31645 whole entry, species assumed): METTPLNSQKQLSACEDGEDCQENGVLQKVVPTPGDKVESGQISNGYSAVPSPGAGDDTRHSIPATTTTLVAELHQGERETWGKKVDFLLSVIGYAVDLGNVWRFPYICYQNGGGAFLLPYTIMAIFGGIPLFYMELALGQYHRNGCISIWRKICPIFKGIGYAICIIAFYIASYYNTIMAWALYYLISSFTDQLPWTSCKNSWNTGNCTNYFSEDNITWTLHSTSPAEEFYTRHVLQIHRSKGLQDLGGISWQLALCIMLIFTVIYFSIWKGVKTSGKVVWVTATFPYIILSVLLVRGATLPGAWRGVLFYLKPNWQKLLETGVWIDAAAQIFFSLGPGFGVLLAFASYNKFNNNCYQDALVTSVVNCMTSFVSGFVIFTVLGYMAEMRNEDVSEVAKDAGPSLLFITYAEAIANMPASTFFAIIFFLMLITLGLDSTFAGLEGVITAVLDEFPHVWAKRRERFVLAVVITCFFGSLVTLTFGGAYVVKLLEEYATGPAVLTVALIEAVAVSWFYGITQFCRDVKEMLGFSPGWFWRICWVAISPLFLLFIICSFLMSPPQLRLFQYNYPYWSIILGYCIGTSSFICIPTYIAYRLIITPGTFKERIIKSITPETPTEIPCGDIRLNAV
Protocol: as §1

NET = NET (Homo sapiens, UniProt P23975); assay: Mini-profiling panel, transporter; type: cell-based
Protocol: as §1

ADRB1 = ADRB1 (Homo sapiens, UniProt P08588); assay: Mini-profiling panel, GPCR; type: cell-based; settings: GPCR Targets
ADRB1, sequence (P08588 whole entry, species assumed): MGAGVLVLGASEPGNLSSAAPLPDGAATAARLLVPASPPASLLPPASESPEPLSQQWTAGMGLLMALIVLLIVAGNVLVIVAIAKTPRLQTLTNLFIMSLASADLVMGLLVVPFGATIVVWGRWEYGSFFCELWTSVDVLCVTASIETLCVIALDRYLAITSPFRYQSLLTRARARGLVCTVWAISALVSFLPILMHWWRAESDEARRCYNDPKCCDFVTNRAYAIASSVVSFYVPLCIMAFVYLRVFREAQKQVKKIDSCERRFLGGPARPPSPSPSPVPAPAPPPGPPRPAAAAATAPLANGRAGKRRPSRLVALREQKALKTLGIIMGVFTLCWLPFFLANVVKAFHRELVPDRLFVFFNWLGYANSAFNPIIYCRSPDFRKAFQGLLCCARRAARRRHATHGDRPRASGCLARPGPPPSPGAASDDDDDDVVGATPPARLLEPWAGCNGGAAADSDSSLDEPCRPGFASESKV

HRH1 = HRH1 (Homo sapiens, UniProt P35367); assay: Mini-profiling panel, GPCR; type: cell-based; settings: GPCR Targets
HRH1, sequence (P35367 whole entry, species assumed): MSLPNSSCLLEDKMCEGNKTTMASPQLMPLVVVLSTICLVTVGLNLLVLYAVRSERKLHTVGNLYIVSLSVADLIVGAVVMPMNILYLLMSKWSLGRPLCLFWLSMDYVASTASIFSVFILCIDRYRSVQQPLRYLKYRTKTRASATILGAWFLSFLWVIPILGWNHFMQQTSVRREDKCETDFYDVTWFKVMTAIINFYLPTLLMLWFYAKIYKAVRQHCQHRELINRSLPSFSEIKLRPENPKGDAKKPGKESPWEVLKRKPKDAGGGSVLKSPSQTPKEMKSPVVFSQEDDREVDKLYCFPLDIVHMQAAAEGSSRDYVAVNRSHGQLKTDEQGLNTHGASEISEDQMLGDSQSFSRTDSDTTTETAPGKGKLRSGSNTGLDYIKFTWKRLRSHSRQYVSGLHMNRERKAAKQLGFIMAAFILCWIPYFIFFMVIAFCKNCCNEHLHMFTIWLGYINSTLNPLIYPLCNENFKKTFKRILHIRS

INSR = INSR (Homo sapiens, UniProt P06213); assay: Mini-profiling panel, kinase; type: biochemical; settings: Kinases; read-out: INSR Inhibitor IC50
PDE4D2 = PDE4D2 (Homo sapiens, UniProt Q08499); assay: Mini-profiling panel, non-kinase enzyme; type: biochemical; settings: Non-Kinase Enzymes; read-out: PDE4D2 Inhibitor IC50
PDE4D2, sequence (Q08499 303-809 limits assumed): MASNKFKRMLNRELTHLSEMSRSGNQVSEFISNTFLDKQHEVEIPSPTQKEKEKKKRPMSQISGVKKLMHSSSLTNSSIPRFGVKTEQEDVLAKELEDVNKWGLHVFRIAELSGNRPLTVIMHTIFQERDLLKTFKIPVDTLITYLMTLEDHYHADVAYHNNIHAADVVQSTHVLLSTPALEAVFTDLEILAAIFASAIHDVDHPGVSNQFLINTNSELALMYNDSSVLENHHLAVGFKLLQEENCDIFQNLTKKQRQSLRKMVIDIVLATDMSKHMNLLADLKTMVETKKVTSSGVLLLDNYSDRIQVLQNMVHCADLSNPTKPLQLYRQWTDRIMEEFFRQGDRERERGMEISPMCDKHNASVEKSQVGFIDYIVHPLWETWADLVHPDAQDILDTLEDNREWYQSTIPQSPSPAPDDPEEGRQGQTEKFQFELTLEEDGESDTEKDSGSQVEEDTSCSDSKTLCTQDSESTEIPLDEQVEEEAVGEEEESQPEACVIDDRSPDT

HRH2 = HRH2 (Homo sapiens, UniProt P25021); assay: Mini-profiling panel, GPCR; type: cell-based; settings: GPCR Targets
HRH2, sequence (P25021 whole entry, species assumed): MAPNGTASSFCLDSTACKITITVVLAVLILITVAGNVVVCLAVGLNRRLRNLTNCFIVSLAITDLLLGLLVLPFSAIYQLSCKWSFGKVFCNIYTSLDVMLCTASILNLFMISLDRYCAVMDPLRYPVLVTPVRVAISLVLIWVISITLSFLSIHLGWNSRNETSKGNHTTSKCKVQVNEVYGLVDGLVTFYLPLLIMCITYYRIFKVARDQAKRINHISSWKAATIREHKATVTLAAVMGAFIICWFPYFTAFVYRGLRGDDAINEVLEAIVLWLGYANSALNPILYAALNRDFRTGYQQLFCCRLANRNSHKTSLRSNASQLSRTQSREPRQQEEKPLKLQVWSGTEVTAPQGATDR

EDNRA = EDNRA (Homo sapiens, UniProt P25101); assay: Mini-profiling panel, GPCR; type: cell-based; settings: GPCR Targets
EDNRA, sequence (P25101 21-427, species assumed): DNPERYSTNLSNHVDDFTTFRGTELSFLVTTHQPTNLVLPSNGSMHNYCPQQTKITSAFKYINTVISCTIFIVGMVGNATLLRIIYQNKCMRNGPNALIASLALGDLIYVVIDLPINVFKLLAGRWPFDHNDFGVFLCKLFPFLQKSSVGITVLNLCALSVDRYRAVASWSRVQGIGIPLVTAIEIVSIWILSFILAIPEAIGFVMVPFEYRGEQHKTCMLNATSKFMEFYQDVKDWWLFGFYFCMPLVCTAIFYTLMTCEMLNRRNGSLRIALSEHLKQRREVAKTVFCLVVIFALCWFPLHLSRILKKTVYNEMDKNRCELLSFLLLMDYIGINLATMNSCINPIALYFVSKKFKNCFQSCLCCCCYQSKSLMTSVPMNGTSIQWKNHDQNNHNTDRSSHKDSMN

MAT2A [2] = target: T1, MAT2A; assay: MAT2A enzymatic activity, biochemical assay (phosphate release)
Protocol: The test compound was prepared in dimethyl sulfoxide (DMSO). […] Then, 40 µL of enzyme dilution was added and the mixture was incubated for 120 min at room temperature. The enzymatic assay was initiated by adding 40 µL of substrate mix (a final dose of 400 µM ATP and a final dose of 200 µM L‐methionine in assay buffer), and the mixture was incubated for a further 90 min at room temperature. The liberated phosphate released by the enzyme in stoichiometric amounts by the production of SAM was measured using the Phosphate Assay Kit—PiColorLock™ (Abcam, UK). Velocity curves were fit to the standard Michaelis‐Menten equation to yield V max and K m.

Work on `Cn1cnc2c(=O)n(-c3cccnc3C3CC3)c3cc(Cl)ccc3c21` [SCR‐7952, 7‐chloro‐5‐(2‐cyclopropylpyridin‐3‐yl)‐1‐methyl‐1,5‐dihydro‐4H‐imidazo[4,5‐c]quinolin‐4‐one] yielded an IC50 (human UGT1A1) of over 100 µM, an IC50 (HCT116 MTAP−/− cells) of 0.0019 µM and an IC50 (COX1) of over 10 µM. The EC50 (ADORA2A; read-out: ADORA2A Agonism EC50) was over 10 µM, the IC50 (ADORA2A; read-out: ADORA2A Antagonism IC50) was over 10 µM and the “expression of MAT2A protein” value (MAT2A protein expression) was “upregulated”. It also gave a Kd (MAT2A [1]; read-out: dissociation equilibrium constant KD) of 0.00056 µM, a kon (MAT2A [1]; single-cycle kinetic model, read-out: association rate constant ka) of 86700 M⁻¹ s⁻¹ and a koff (MAT2A [1]; single-cycle kinetic model, read-out: dissociation rate constant kd) of 4.83e-05 s⁻¹. For the same compound, the EC50 (CCKAR; read-out: CCKAR Agonism EC50) was over 10 µM, the IC50 (CCKAR; read-out: CCKAR Antagonism IC50) was over 10 µM and the IC50 (DAT) was over 10 µM. For the same compound, the IC50 (SERT) was over 10 µM, the IC50 (NET) was over 10 µM and the EC50 (ADRB1; read-out: ADRB1 Agonism EC50) was over 10 µM. For the same compound, the IC50 (ADRB1; read-out: ADRB1 Antagonism IC50) was over 10 µM, the EC50 (HRH1; read-out: HRH1 Agonism EC50) was over 10 µM and the IC50 (HRH1; read-out: HRH1 Antagonism IC50) was over 10 µM. For the same compound, the IC50 (INSR) was over 10 µM, the IC50 (PDE4D2) was over 10 µM and the EC50 (HRH2; read-out: HRH2 Agonism EC50) was over 10 µM. The IC50 (HRH2; read-out: HRH2 Antagonism IC50) was over 10 µM, the EC50 (EDNRA; read-out: EDNRA Agonism EC50) was over 10 µM and the IC50 (EDNRA; read-out: EDNRA Antagonism IC50) was over 10 µM. For the same compound, the “fold more potent than AG-270 on MAT2A enzymatic activity” value (MAT2A [2]) was 3.7 fold, the IC50 (MAT2A [2]; biochemical assay, read-out: IC50, MAT2A enzyme) was 0.0187 µM and the Ki (MAT2A [2]; in the presence of substrate methionine, Michaelis–Menten approach) was 0.0145 µM. For the same compound, the α value (MAT2A [2]; noncompetitive inhibition for methionine) was 1.193.
